The NIST ThermoML archive (doi:10.1021/je050348f)

Assay: osmotic coefficient (dimensionless); mn = molality of the nth substance listed, in mol/kg
Details: 101 kPa, Liquid, Knauer vapor pressure osmometer

Cc1ccc(S(=O)(=O)[O-])cc1.[Na+] [sodium p-toluenesulfonate] + O
osmotic coefficient
Details	313.15 K	318.15 K	323.15 K
m1 = 0.02	0.985	0.98	0.968
m1 = 0.04	0.964	0.96	0.956
m1 = 0.06	0.944	0.941	0.939
m1 = 0.08	0.933	0.931	0.928
m1 = 0.1	0.921	0.92	0.916
m1 = 0.12	0.911	0.908	0.904
m1 = 0.14	0.902	0.898	0.894
m1 = 0.15	0.897	0.895	0.892
m1 = 0.16	0.891	0.888	0.885
m1 = 0.17	0.888	0.887	0.882
m1 = 0.2	0.867	0.864	0.86
m1 = 0.22	0.876	0.873	0.869
m1 = 0.3	0.839	0.836	0.831
m1 = 0.35	0.806	0.803	0.8
m1 = 0.4	0.771	0.76	0.755
m1 = 0.45	0.76	0.756	0.75
m1 = 0.5	0.75	0.743	0.739
m1 = 0.6	0.72	0.711	0.696
m1 = 0.7	0.71	0.685	0.676
m1 = 0.8	0.701	0.683	0.674
